Test results taken from US9289490B2, “Combinations and uses thereof” (MORPHOSYS AG, priority 2010, dated 2016).
Several values for one entry are separate records, joined by “and”; a condition that tells them apart may be missing. Equal entries are not always repeated.

Columns and labels:
RAMOS cells = experiment: RAMOS non-Hodgkin tumor SCID mouse survival model, MOR202 and lenalidomide; assay type: in vivo, SCID mice
Procedure: Sixty-eight female SCID mice were pre-treated with Cyclophosphamide (75 mg/kg, i.p., twice daily) for two days prior to RAMOS cell inoculation (Day −5 and −4). On the day of inoculation (Day −3), all mice were inoculated with 1×10^6 RAMOS cells each intravenously into the tail vein. Sixty-four of the mice were randomised by body weight into eight groups of eight.
The study continued for 98 days and the measured endpoint was survival.

NCI-H929 cells [1] = conditions: 5 µM
Procedure: (§6) PBMC's were isolated by density gradient centrifugation of freshly isolated human blood. Isolated blood from different donors were layered on a defined volume of Biocoll (Biochrome AG; CAT No.:L6115; LOT No.:1050T) in a Falcon tube and centrifuged at 380 g. The PBMCs were isolated and supplemented with RPMI medium.
(§7) Cell suspensions were further incubated for 4 h at 37° C. To detect dead AMO-1 cells, cell suspensions were challenged with propidium iodide (PI) and subsequently analyzed in flow cytometry. Target cells were separated via gating of CalceinAM positive cell populations, and cells killed via ADCC were quantified.
(§8) Single and combination doses of 5 μM LEN and 15 μg/ml of MOR03207 and 0.2 or 0.07 μg/ml MOR202 were used.
(§9) Single and combination doses of 5 μM LEN and 15 μg/ml of MOR03207 and 0.2* or 0.07 μg/m MOR202 were used.

NCI-H929 cells [2] = experiment: ADCC with human PBMCs, flow cytometry (CalceinAM/PI)
Procedure: as §6, §7, §8, §9

OPM-2 cells = experiment: CD38 surface expression after lenalidomide (FACS, ABC); assay type: cell-based, human
Procedure: (§1) Cells were stained with a directly labelled QuantiBRITE™ CD38-PE antibody (Becton Dickinson GmbH, Clone HB7, CAT #342371), which is specific for CD38. The “Antibodies Bound Per Cell” (ABC's) were determined using the flow cytometry based QuantiBRITE™ system, which measures the geometric mean (GeoMean) per cell. Conversion of measured GeoMean into correlating ABC amount per cell was done with GraphPad PRISM™ software. The ABC values are assumed to correlate with the number of CD38 molecules per cell, since QuantiBRITE™ CD38-PE carries one PE molecule per antibody.
(§2) To determine whether lenalidomide induced upregulation of CD38 in the multiple myeloma and plasmacytoma cells of Table 1, the cell lines were incubated with 100 μM lenalidomide and, subsequently, CD38 surface expression was analyzed by FACS.
(§3) Around 2×10^5 cells of each of the cells lines of Table 1 were plated on 48-well dishes in standard RPMI medium. Lenalidomide, purchased from Selleck Chemicals (LLC S1029, CAS No. 191732-6; Batch: S10290), was applied to respective wells to a final concentration of 100 μM in a volume of 750 μl containing 20% FCS and 0.1% DMSO.
(§4) Cells were resuspended by gentle pipetting and 250 μl of cell suspension per incubation period were transferred into a well of a 96-well round bottom plate. Cells were washed by centrifugation for 1 min at 700×g and were resuspended in 150 μl of cold FACS buffer (1×PBS supplemented with 3% FCS). Cells were again pelleted down by centrifugation and were resuspended in 150 μl of FACS buffer containing 15 μg/ml of anti-CD38 antibody (MOR202, IgG1) or control antibody MOR03207 and incubated for 1 h on ice. Cells were then washed 3 times by centrifugation and were resuspended in FACS buffer supplemented with PE-labeled secondary antibody (PE-Fab2 fragment, goat anti-human IgG. Fc-fragment specific; Jackson Immuno Research; CAT: 109-116-098; Lot: 80938). Cells were incubated for 45 minutes on ice, then washed 3 times by centrifugation and resuspended in FACS buffer. The cell suspensions were then subjected to FACS analysis using a FACS array device.
(§5) Additionally, the affect of lenalidomide on the CD38 expression of AMO-1 cells is shown in FIG. 1, and the affect of lenalidomide on the CD38 expression of NCI-H929 cells is shown in FIG. 5.

RPMI-8226 cells = experiment: as above; assay type: cell-based, human
Procedure: as §1, §2, §3, §4, §5

AMO-1 cells [3] = experiment: as above; assay type: cell-based, human
Procedure: as §1, §2, §3, §4, §5

NCI-H929 cells [4] = experiment: as above; assay type: cell-based, human
Procedure: as §1, §2, §3, §4, §5

LP-1 cells = experiment: as above; assay type: cell-based, human
Procedure: as §1, §2, §3, §4, §5

AMO-1 cells [5] = experiment: Cell proliferation, XTT-based assay; design: species or system human
Procedure: Cells were collected and distributed in 96-well plates with 5000 cells per well.
After incubation, plates were analyzed for cell proliferation in a quantitative colorimietric XTT-based assay using the cell proliferation kit II (ROCHE, Cell Proliferation Kit II, Cat. No.: 11465015001). For subsequent measurement plates were subjected to Tecan Genios Reader and absorbance at 492 nm was detected.
Increasing amounts of Bortezomib (Velcade®, Lot: No.: #9AZSY00) were applied to AMO-1, LP-1, NCI-H929 and RPMI-8226 cells and incubated for 24 h, 48 h and 72 h. After incubation, period plates were analyzed for cell proliferation in a quantitative colorimietric XTT-based assay using the cell proliferation kit II (ROCHE, Cell Proliferation Kit II, Cat. No.: 11465015001). For subsequent measurement, plates were subjected to Tecan Genios Reader and absorbance at 492 nm was detected.

AMO-1 cells [6] = experiment: ADCC with human PBMCs, flow cytometry (CalceinAM/PI); assay type: cell-based
Procedure: For Tables 3b-c, “Theoretical Combination” represents the addition of the values of MOR202 alone and the values of LEN alone. The normalized data of Table 3b is calculated as follows. Therefore, the specific killing values of Table 3b are calculated by subtracting the values of the controls. Then the specific killing values are compared to the MOR202 group, which is set as 1.
The constant m determines the shape of the dose-effect curve. We used Excel Fit software to carry out a linear regression calculation to estimate the parameters m and D50.
The CI-isobol method provides a quantitative assessment of synergism between drugs. A combination index (CI) is estimated from dose-effect data of single and combined drug treatments. […] Formally, the combination index (CI) of a combined drug treatment is defined as CI=D1/Dx1+D2/Dx2
The data is analysed in the following way: Antagonistic(AB)/C<(A/C)×(B/C) Additive(AB)/C=(A/C)×(B/C) Synergistic(AB)/C>(A/C)×(B/C) where A is the treatment with LEN alone; B is the treatment with MOR202 alone; C is response to the treatment vehicle; AB is combination of treatments A and B.

[7] = tested on: Plasmacytoma, Malignant Plasma Cells; experiment: CD38 surface expression after lenalidomide (FACS, ABC); assay type: cell-based, human
Procedure: Bone marrow samples (4-10 ml aspirate) from multiple myeloma patients and extramedullary tumor plasmacytoma samples were obtained after informed consent from the Klinikum rechts der Isar (“KrdI”) (Munich, Germany). Samples were subjected to centrifugation, and further plasma cell enrichment was achieved via magnetic-activated cell sorting.
as §1, §2, §3
Cells were resuspended by gentle pipetting and 250 μl of cell suspension per incubation period were transferred into a well of a 96-well round bottom plate. Cells were washed by centrifugation for 1 min at 700×g and were resuspended in 150 μl of cold FACS buffer (1×PBS supplemented with 3% FCS). Cells were again pelleted down by centrifugation and were resuspended in 150 μl of FACS buffer containing 15 μg/ml of anti-CD38 antibody (MOR202, IgG1) or control antibody MOR03207 and incubated for 1 h on ice. […]

Nc1cccc2c1CN(C1CCC(=O)NC1=O)C2=O (stereo not shown) [LEN, lenalidomide]
Number of mice alive at study termination (day 98) (RAMOS cells; LEN 100 mg/kg (Table 14) p.o., MOR202 1 mg/kg i.v.): 0/7
Day of death (post-inoculation) Mean (RAMOS cells; LEN 100 mg/kg (Table 14) p.o., MOR202 1 mg/kg i.v. twice weekly, study 98 days): 21.4 days
% ILS (based on median death day) (RAMOS cells; LEN 100 mg/kg (Table 14) p.o., MOR202 1 mg/kg i.v., vs vehicle control): 10%
Day of death (post-inoculation) Median (RAMOS cells; LEN 100 mg/kg (Table 14; Table 13: 50 mg/kg) p.o. once daily, MOR202 1 mg/kg i.v. twice weekly, study 98 days): 22 days
Normalized specific killing, fractional product combination set as 1 (Table 7b), Exp. 1 (NCI-H929 cells [1]): 0.67
Normalized specific killing, fractional product combination set as 1 (Table 8b), Exp. 1 (NCI-H929 cells [1]): −0.10
Enhancement of MOR202 activity by LEN (in words) (NCI-H929 cells [2]; NCI-H929 cells, Fractional Product Concept and Chou et al., 6 out of 6 experiments each): synergistically enhanced MOR202 activity
% dead cells (raw data, Table 7a), Exp. 2 and 3 (NCI-H929 cells [2]; PBMCs and NCI-H929 cells treated with LEN before MOR202, LEN 5 μM, MOR202 0.07 μg/ml, MOR03207 15 μg/ml): 39.92 % dead cells and 41.92 % dead cells
% dead cells (raw data, Table 7a), Exp. 1 (NCI-H929 cells [2]; PBMCs and NCI-H929 cells treated with LEN before MOR202, LEN 5 μM, MOR202 0.2 μg/ml (*), MOR03207 15 μg/ml): 38.65 % dead cells
Normalized specific killing, AVERAGE (Table 7b) (NCI-H929 cells [2]; PBMCs and NCI-H929 cells treated with LEN, LEN 5 μM, MOR202 0.2 or 0.07 μg/ml, average of 3 experiments): 0.63
% dead cells (raw data, Table 8a), Exp. 2 and 3 (NCI-H929 cells [2]; only effector cells treated with LEN before MOR202, LEN 5 μM, MOR202 0.07 μg/ml, MOR03207 15 μg/ml): 26.27 % dead cells and 25.72 % dead cells
% dead cells (raw data, Table 8a), Exp. 1 (NCI-H929 cells [2]; only effector cells treated with LEN before MOR202, LEN 5 μM, MOR202 0.2 μg/ml (*), MOR03207 15 μg/ml): 17.50 % dead cells
Normalized specific killing, AVERAGE (Table 8b) (NCI-H929 cells [2]; only effector cells treated with LEN, LEN 5 μM, MOR202 0.2 or 0.07 μg/ml, average of 3 experiments): 0.02
Absolute number of ABC (CD38 expression) LEN (extrapolated) (OPM-2 cells; 100 μM lenalidomide): 98,800 ABC
Absolute number of ABC (CD38 expression) INCREASE (OPM-2 cells; 100 μM lenalidomide vs basal): 60,800 ABC
Fold increase (CD38 expression) (OPM-2 cells; 100 μM lenalidomide vs basal): 2.6 fold
Absolute number of ABC (CD38 expression) LEN (extrapolated) (RPMI-8226 cells; 100 μM lenalidomide): 871,000 ABC
Effect (on CD38 expression) (RPMI-8226 cells; 100 μM lenalidomide): Weak
Absolute number of ABC (CD38 expression) INCREASE (RPMI-8226 cells; 100 μM lenalidomide vs basal): 199,000 ABC
Fold increase (CD38 expression) (RPMI-8226 cells; 100 μM lenalidomide vs basal): 1.3 fold
Absolute number of ABC (CD38 expression) LEN (extrapolated) (AMO-1 cells [3]; 100 μM lenalidomide): 115,000 ABC
Absolute number of ABC (CD38 expression) INCREASE (AMO-1 cells [3]; 100 μM lenalidomide vs basal): 90,000 ABC
Fold increase (CD38 expression) (AMO-1 cells [3]; 100 μM lenalidomide vs basal): 4.5 fold
Absolute number of ABC (CD38 expression) LEN (extrapolated) (NCI-H929 cells [4]; 100 μM lenalidomide): 390,000 ABC
Effect (on CD38 expression) (NCI-H929 cells [4]; 100 μM lenalidomide): Weak
Absolute number of ABC (CD38 expression) INCREASE (NCI-H929 cells [4]; 100 μM lenalidomide vs basal): 195,000 ABC
Fold increase (CD38 expression) (NCI-H929 cells [4]; 100 μM lenalidomide vs basal): 2.0 fold
Absolute number of ABC (CD38 expression) LEN (extrapolated) (LP-1 cells; 100 μM lenalidomide): 162,500 ABC
Effect (on CD38 expression) (LP-1 cells; 100 μM lenalidomide): No
Absolute number of ABC (CD38 expression) INCREASE (LP-1 cells; 100 μM lenalidomide vs basal): 37,500 ABC
Fold increase (CD38 expression) (LP-1 cells; 100 μM lenalidomide vs basal): 1.3 fold
Cytotoxicity of lenalidomide alone (in words) (AMO-1 cells [5]): low cytotoxity against AMO-1 cells
Cell killing by lenalidomide alone (in words) (AMO-1 cells [6]; AMO-1 cells): no effect on AMO-1 cells regarding cell killing
Enhancement of MOR202 ADCC activity by LEN (in words) (AMO-1 cells [6]; AMO-1 cells, Clarke et al. all 6 experiments, Chou et al. 6 out of 6): synergistically enhanced MOR202 ADCC activity
Normalized specific killing, theoretical combination set as 1, AVERAGE (Table 3c) (AMO-1 cells [6]; PBMCs and AMO-1 cells treated with LEN, MOR202 0.42 μg/ml, LEN 5 μM, average of 3 experiments): 0.2
% dead cells (raw data, Table 4a) (AMO-1 cells [6]; only PBMCs (effector cells) treated with LEN before MOR202, LEN 10 μM, MOR202 and MOR03207 15 μg/ml, Exp. 1-3): 17.93 % dead cells and 15.33 % dead cells and 12.98 % dead cells
Normalized specific killing, theoretical combination set as 1, AVERAGE (Table 4c) (AMO-1 cells [6]; only effector cells treated with LEN, MOR202 0.42 μg/ml, LEN 5 μM, average of 3 experiments): 0.1
Absolute number of ABC (CD38 expression) LEN (extrapolated) ([7]; 100 μM lenalidomide): 69,000 ABC
Absolute number of ABC (CD38 expression) INCREASE ([7]; 100 μM lenalidomide vs basal): 39,000 ABC
Fold increase (CD38 expression) ([7]; 100 μM lenalidomide vs basal): 2.3 fold
